The text below walks through data of patent US6872745B2, “Antipicornaviral compounds and compositions, their pharmaceutical uses, and materials for their synthesis” (Agouron Pharmaceuticals, Inc., priority 2000, dated 2005).

For one data set, the system named is HRV-14. Put plainly: Antirhinoviral H1-HeLa cell culture assay (XTT cell protection). The data set is classed as cell-based, human rhinovirus. The following applies: Rhinovirus B, HRV14, H1-HeLa, HRV-14, H1-HeLa cells. How it is done:
(§1) In this cell protection assay, the ability of compounds to protect cells against HRV infection was measured by the XTT dye reduction method, which is described in Weislow et al., J. Natl. Cancer Inst. (1989), vol. 81, 577-586. H1-HeLa cells were infected with HRV-14 at a multiplicity of infection (m.o.i.) of 0.13 (virus particles/cell) or mock-infected with medium only. Infected or mock-infected cells were resuspended at 8×10^5 cells per ml, and incubated with appropriate concentrations of the compounds to be tested. Two days later, XTT/PMS was added to test plates and the amount of formazan produced was quantified spectrophotometrically at 450/650 nm. The EC50 value was calculated as the concentration of compound that increased the percentage of formazan production in compound-treated, virus-infected cells to 50% of that produced by compound-free, mock-infected cells. The 50% cytotoxic dose (CC50) was calculated as the concentration of compound that decreased the percentage of formazan produced in compound-treated, mock-infected cells to 50% of that produced by compound-free, mock-infected cells. The therapeutic index (TI) was calculated by dividing the CC50 value by the EC50 value.
(§2) All strains of human rhinovirus (HRV) for use in this assay were purchased from American Type Culture Collection (ATCC), except for HRV serotype-14 (produced from the infectious cDNA clone constructed by Dr. Robert Rueckert, Institute for Molecular Virology, University of Wisconsin, Madison, Wis.). HRV stocks were propagated and viral assays were performed in H1-HeLa cells (ATCC). Cells were grown in minimal essential medium with 10% fetal bovine serum, available from Life Technologies (Gaithersburg, Md.).

The target of data set [1] is T1, rhinovirus 3C protease, serotype 14 (Human rhinovirus 14, UniProt P03303).
T1 construct: Recombinant rhinovirus 3C proteases; made in house
The experiment in a line: Inhibition of rhinovirus 3C protease (FRET assay, enzyme start). The data set is classed as biochemical. As to conditions: HRV-14 3C protease, progress curves, read-out: Kobs/I. The method, then:
Stock solutions (50 mM, in DMSO) of various compounds were prepared; dilutions were in the same solvent. Recombinant rhinovirus 3C proteases (see Birch et al., “Purification of recombinant human rhinovirus 14 3C protease expressed in Escherichia coli,” Protein Expr. Pur. (1995), vol. 6(5), 609-618) from serotypes 14, 16, and 2 were prepared by the following standard chromatographic procedures: (1) ion exchange using Q Sepharose Fast Flow from Pharmacia; (2) affinity chromatography using Affi-Gel Blue from Biorad; and (3) sizing using Sephadex G-100 from Pharmacia. Each assay sample contained 2% DMSO, 50 mM tris pH 7.6, 1 mM EDTA, a test compound at the indicated concentration, approximately 1 μM substrate, and 50-100 nM protease. The kobs/I values were obtained from reactions initiated by addition of enzyme rather than substrate. RVP activity was measured in the fluorescence resonance energy transfer assay. The substrate was (N-terminal) DABCYL-(Gly-Arg-Ala-Val-Phe-Gln-Gly-Pro-Val-Gly)-EDANS. In the uncleaved peptide, the EDANS fluorescence was quenched by the proximal DABCYL moiety. When the peptide was cleaved, the quenching was relieved, and activity was measured as an increase in fluorescence signal. The tabulated data in the column designated kobs/[I] were measured from progress curves in enzyme start experiments.

The nature of data set [2]: Cytotoxicity in mock-infected cells of the antirhinoviral assay (XTT). In kind it is cell-based. The following applies: human, H1-HeLa cells, table line HRV-14. How it is done:
as §1, §2
(In general: Tetrazolium dyes change colour on reduction, which living cells bring about.)

T1 sequence (P03303 1538-1719): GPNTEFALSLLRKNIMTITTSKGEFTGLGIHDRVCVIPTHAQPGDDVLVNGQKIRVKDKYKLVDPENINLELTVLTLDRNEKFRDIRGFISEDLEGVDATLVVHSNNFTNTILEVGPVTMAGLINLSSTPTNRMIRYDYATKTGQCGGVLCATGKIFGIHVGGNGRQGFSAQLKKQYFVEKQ

In turn, `CCOC(=O)/C=C/[C@H](CCC(N)=O)NC(=O)[C@H](Cc1ccccc1)NC(=O)c1ccc(-c2ccccc2Br)[nH]1` [Compound 14, 4S-(2S-{[5-(2-Bromo-phenyl)-1H-pyrrole-2-carbonyl]-amino}-3-phenyl-propionylamino)-6-carbamoyl-hex-2(trans)-enoic acid ethyl ester] registered an EC50 in the data set with HRV-14 of 0.534 µM. Also, in data set [1], the kinact/KI came to 34600 M⁻¹ s⁻¹. For the same compound, the CC50 at 2 days in data set [2] was over 10 µM.
Consider `CCOC(=O)/C=C/[C@H](CCC(N)=O)NC(=O)[C@H](Cc1ccccc1)NC(=O)c1ccc(-c2ccncc2)[nH]1` [Compound 15, 6-Carbamoyl-4S-{3-phenyl-2S-[(5-pyridin-4-yl-1H-pyrrole-2-carbonyl)-amino]-propionylamino}-hex-2(trans)-enoic acid ethyl ester], for which a half-maximal response in the data set with HRV-14 (EC50) required 27 µM. The kinact/KI in data set [1] came to 980 M⁻¹ s⁻¹. In data set [2], the cytotoxic concentration (CC50) at 2 days was over 100 µM.
Take `C#CC[C@H](NC(=O)c1ccc(-c2ccccc2C(F)(F)F)[nH]1)C(=O)N[C@H](/C=C/C(=O)OCC)CCC(N)=O` [Compound 16, 6-Carbamoyl-4S-(2S-{[5-(2-trifluoromethyl-phenyl)-1H-pyrrole-2-carbonyl]-amino}-pent-4-ynoylamino)-hex-2(trans)-enoic acid ethyl ester]: the midpoint of the response in the data set with HRV-14, the EC50, lay at 1.32 µM. Also, the kinact/KI in data set [1] is 7100 M⁻¹ s⁻¹. In data set [2], this compound returned a CC50 at 2 days of over 10 µM.
The compound `CCOC(=O)/C=C/[C@H](CCC(N)=O)NC(=O)[C@H](CC(C)C)NC(=O)c1ccc(-c2ccccc2C(F)(F)F)[nH]1` [Compound 17, 6-Carbamoyl-4S-(4-methyl-2S-{[5-(2-trifluoromethyl-phenyl)-1H-pyrrole-2-carbonyl]-amino}-pentanoylamino)-hex-2(trans)-enoic acid ethyl ester] came in with a concentration for a half-maximal effect (EC50) with HRV-14 of 2.19 µM. Moreover, the kinact/KI in data set [1] amounted to 2900 M⁻¹ s⁻¹. Besides, the CC50 at 2 days in data set [2] was over 10 µM.
Turning to `CCC[C@H](NC(=O)c1ccc(-c2ccccc2C(F)(F)F)[nH]1)C(=O)N[C@H](/C=C/C(=O)OCC)CCC(N)=O` [Compound 18, 6-Carbamoyl-4S-(2S-{[5-(2-trifluoromethyl-phenyl)-1H-pyrrole-2-carbonyl]-amino}-pentanoylamino)-hex-2(trans)-enoic acid ethyl ester], the response in the data set on HRV-14 was half-maximal at 1.6 µM (EC50). Further, in data set [1], the kinact/KI came out at 3140 M⁻¹ s⁻¹. For the same compound, in data set [2], the CC50 at 2 days was over 10 µM.
`CCCC[C@H](NC(=O)c1ccc(-c2ccccc2C(F)(F)F)[nH]1)C(=O)N[C@H](/C=C/C(=O)OCC)CCC(N)=O` [Compound 19, 6-Carbamoyl-4S-(2S-{[5-(2-trifluoromethyl-phenyl)-1H-pyrrole-2-carbonyl]-amino}-hexanoylamino)-hex-2(trans)-enoic acid ethyl ester] registered an EC50 with HRV-14 of 1.53 µM. Moreover, in data set [1], the kinact/KI came out at 6650 M⁻¹ s⁻¹. The compound further came in with a half-maximal cytotoxic concentration (CC50) at 2 days in data set [2] of over 10 µM.
Regarding `CCOC(=O)/C=C/[C@H](CCC(N)=O)NC(=O)CNC(=O)c1ccc(-c2ccccc2C(F)(F)F)[nH]1` [Compound 20, 6-Carbamoyl-4S-(2S-{[5-(2-trifluoromethyl-phenyl)-1H-pyrrole-2-carbonyl]-amino}-acetylamino)-hex-2(trans)-enoic acid ethyl ester], in the data set with HRV-14, the concentration for a half-maximal effect (EC50) is 16.4 µM. For the same compound, in data set [1], the kinact/KI was determined as 330 M⁻¹ s⁻¹. The CC50 at 2 days in data set [2] is over 100 µM.
Consider `CCOC(=O)/C=C/[C@H](CCC(N)=O)NC(=O)[C@H](Cc1ccccc1)NC(=O)c1ccc(CCC(F)(F)F)[nH]1` [Compound 22, 6-Carbamoyl-4S-(3-phenyl-2S-{[5-(3,3,3-trifluoro-propyl)-1H-pyrrole-2-carbonyl]-amino}-propionylamino)-hex-2(trans)-enoic acid ethyl ester], for which the EC50 in the data set with HRV-14 is 5.72 µM. Also, the kinact/KI in data set [1] was determined as 4400 M⁻¹ s⁻¹. Besides, the CC50 at 2 days in data set [2] was over 10 µM.
In turn, `CCOC(=O)/C=C/[C@H](CCC(N)=O)NC(=O)[C@H](CC)NC(=O)c1ccc(-c2ccccc2C(F)(F)F)[nH]1` [Compound 23, 6-Carbamoyl-4S-(2S-{[5-(2-trifluoromethyl-phenyl)-1H-pyrrole-2-carbonyl]-amino}-butyrlamino)-hex-2(trans)-enoic acid ethyl ester] gave a 50% effective concentration (EC50) in the data set with HRV-14 of 1.55 µM. For the same compound, the kinact/KI in data set [1] worked out at 3800 M⁻¹ s⁻¹. Further, the CC50 at 2 days in data set [2] is over 10 µM.
Take `CCOC(=O)/C=C/[C@H](C[C@@H]1CCNC1=O)NC(=O)[C@H](Cc1ccccc1)NC(=O)c1ccc[nH]1` [Compound 24, 5-(2-Oxo-pyrrolidin-3S-yl)-4S-{3-phenyl-2S-[(1H-pyrrole-2-carbonyl)-amino]-propionylamino}-pent-2(trans)-enoic acid ethyl ester]: the concentration giving a half-maximal response (EC50) with HRV-14 came out at 3.91 µM. Also, the kinact/KI in data set [1] came to 5460 M⁻¹ s⁻¹. The compound further returned a CC50 at 2 days in data set [2] of over 100 µM.
On to `O=C1OCC/C1=C\[C@H](C[C@@H]1CCNC1=O)NC(=O)[C@H](Cc1ccc(F)cc1)NC(=O)c1ccc(-c2cccc3ccccc23)[nH]1` [Compound 26], for which the half-maximal effective concentration (EC50) in the data set with HRV-14 worked out at 0.073 µM. The kinact/KI in data set [1] stood at 188000 M⁻¹ s⁻¹. In data set [2], this compound returned a 50% cytotoxic concentration (CC50) at 2 days of over 10 µM.
For `O=C1OCC/C1=C\[C@H](C[C@@H]1CCNC1=O)NC(=O)[C@H](Cc1ccc(F)cc1)NC(=O)c1ccc(-c2ccccc2)[nH]1` [Compound 27, 5-Phenyl-1H-pyrrole-2-carboxylic acid-{2S-(4-fluorophenyl)-1S-[1-(2-oxo-dihydrofuran-3-ylidinemethyl)-1-(2-oxo-pyrrolidin-3S-methyl)-ethylcarbamoyl]-2S-phenyl-ethyl}-amide] the same measures were 1.58 µM, 11700 M⁻¹ s⁻¹ and over 10 µM.
In the case of `CCOC(=O)/C=C/[C@H](C[C@@H]1CCNC1=O)NC(=O)[C@@H](CC(=O)c1ccc[nH]1)Cc1ccccc1` [Compound 30], it took 3.34 µM to reach a half-maximal effect in the data set on HRV-14 (EC50). Further, the kinact/KI in data set [1] was 2500 M⁻¹ s⁻¹. Moreover, the CC50 at 2 days in data set [2] was over 10 µM.
Regarding `O=C1OCC/C1=C\[C@H](C[C@@H]1CCNC1=O)NC(=O)[C@@H](CC(=O)c1ccc(-c2cccc3ccccc23)[nH]1)Cc1ccc(F)cc1` [Compound 33, 2-(R,S)-(4-Fluorobenzyl)-4-(5-naphthalen-1-yl-1H-pyrrol-2-yl)-4-oxo-N-[2-(2-oxo-dihydro-furan-3-ylidine)-1S-(2-oxo-pyrrolidin-3S-ylmethyl)-ethyl]-butyramide], the concentration for a half-maximal effect (EC50) in the data set with HRV-14 came out at 0.212 µM. In addition, in data set [1], the kinact/KI is 100000 M⁻¹ s⁻¹. This compound also yielded a CC50 at 2 days in data set [2] of over 10 µM.
For `CCOC(=O)/C=C/[C@H](C[C@@H]1CCNC1=O)NC(=O)[C@@H](CC(=O)c1ccc(-c2ccccc2C(F)(F)F)[nH]1)Cc1ccccc1` [Compound 35, 4S-{2R-Benzyl-4-oxo-4-[5-(2-trifluoromethyl-phenyl)-1H-pyrrol-2-yl]-butyrylamino}-5-(2-oxo-pyrrolidin-3S-yl)-pent-2(trans)-enoic acid ethyl ester] the same measures were 0.143 µM, 125000 M⁻¹ s⁻¹ and over 10 µM.
For `CCOC(=O)/C=C/[C@H](C[C@@H]1CCNC1=O)NC(=O)[C@H](CC)CC(=O)c1ccc(-c2ccccc2C(F)(F)F)[nH]1` [Compound 37, 4S-{2R-Ethyl-4-oxo-4-[5-(2-trifluoromethyl-phenyl)-1H-pyrrol-2-yl]-butyrylamino}-5-(2-oxo-pyrrolidin-3S-yl)-pent-2(trans)-enoic acid ethyl ester] the same measures were 0.266 µM, 26400 M⁻¹ s⁻¹ and over 10 µM.

As usually defined, the EC50 is the concentration at which the effect is half-maximal. The low end stands for an effect from little substance, the high end for a need for much substance. In general, CC50 refers to the concentration at which the toxic effect on the cells reaches its halfway point. A lower CC50 goes with harm at low concentration.
